From patent US20200055817A1 (AbbVie Deutschland GmbH & Co. KG, priority 2016, published 2020) come the findings set out here.

The structures appear in SMILES notation.

Assay type in all cases: cell-based
The target in assay [1] is T1, human EDG8 (S1PR5) receptor (Homo sapiens, UniProt Q9H228).
T1 construct: carries the transgenes human EDG8 (S1PR5) receptor (Acession number NP_110387.1); expressed in transfected cells; host or cells: CHO-A21-EDG8#12 (CHO clone co-expressing mitochondrial aequorin and chimaeric Gaqi5)
As to the kind of experiment: Aequorin assay, agonist potency, CHO-A21-EDG8#12 cells. As to conditions: agonist mode, aequorin luminescence; read-out: S1P5 EC50 range #. Summed up:
(§1)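 CHO cells coexpressing receptor, mitochondrial aequorin and Gαqi5 (S1P3 pool: GNA16) were loaded overnight at RT with 5 μM coelenterazine h in 0.1% fatty-acid-free BSA buffer. Cells were injected onto compound, luminescence recorded 90 s and integrated, normalised to digitonin or 20 μM ATP; sigmoidal fit.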

Assay [2] addresses T2, human EDG1 (S1PR1) receptor (Homo sapiens, UniProt P21453).
T2 construct: expressed in transfected cells; host or cells: CHO-A21-Edg1#17 (CHO clone co-expressing mitochondrial aequorin and chimaeric Gaqi5)
The experiment in a line: Aequorin assay, agonist potency, CHO-A21-Edg1#17 cells. As to conditions: agonist mode, aequorin luminescence; read-out: S1P1 EC50. The method in brief:
as §1

Assay [3] deals with T3, human EDG3 (S1PR3) receptor (Homo sapiens, UniProt Q99500).
T3 construct: expressed in transfected cells; host or cells: CHO-A2-S1P3 Mix (CHO cell pool co-expressing mitochondrial aequorin and GNA16)
As to the kind of experiment: Aequorin assay, agonist potency, CHO-A2-S1P3 Mix cells. Particulars: agonist mode, aequorin luminescence. As for the experimental part:
Agonistic activity was measured as described below.
Cell clone CHO-A21-Edg1#17 carries the transgenes human EDG1 (S1PR1) receptor (Accession number NP_001391.2), mitochondrially targeted Aequorin (active part corresponds to accession number 1SL8_A) and chimaeric Gaqi5=Gaq modified with the 5 C-terminal amino-acids replaced with those of the Gai protein (DCGLF). CHO-A2-S1P3 Mix is a cell pool ectopically expressing human EDG3 (S1PR3) receptor (Accession number NP_005217.2) mitochondrially targeted Aequorin (active part has a sequence similar to accession number AY601106.1) and GNA16 (Accession number NP_002059.3). Cell clone CHO-A21-EDG8#12 carries the transgenes human EDG8 (S1PR5) receptor (Acession number NP_110387.1), mitochondrially expressed Aequorin (active part corresponds to accession number 1SL8_A) and chimaeric Gaqi5 (Gaq modified to present the 5 last amino-acids of the Gai protein “DCGLF”; see above). Cells are grown to mid-log phase in culture medium (HAM's F12, 10% FBS, 100 IU/mL penicillin, 100 μg/mL streptomycin, 250 μg/mL Zeocin, 400 μg/mL G418). 18 hours prior to frozen cells preparation, the medium is changed to remove the antibiotics.
18 hours prior to the test, vials of frozen cells are quickly thawed in a 37° C. water bath, cells are recovered by centrifugation and resuspended in assay buffer (DMEM/HAM's F12 with HEPES, without phenol red+0.1% fatty acid-free BSA). Cells are gently agitated in suspension overnight at RT in presence of 5 μM of Coelenterazine h (Molecular Probes). On the day of the test, cells are diluted to their final working concentrations in assay buffer and agitated in suspension for 1 h at RT. Cells are then placed in the luminescence reader (Hamamatsu Functional Drug Screening System 6000, FDSS6000). During cells incubation, compounds are prepared in 100% DMSO, and subsequently diluted in assay buffer. Compounds are then dispensed in the assay plate (black, clear-bottom, 384-well plate). After binding of agonists to the human S1P receptor the intracellular calcium concentration increases and binding of calcium to the Aequorin/Coelenterazine complex leads to an oxidation reaction of coelenterazine, which results in the production of Aequorin, coelenteramide, CO2 and light (Dmax 469 nm). The luminescent response is dependent on the agonist concentration. For agonist testing, 30 μL of cell suspension are injected on 30 μL of test compound or reference agonist in the assay plate. The resulting emission of light is recorded for 90 seconds using the FDSS6000. Dose response curves with the reference compounds are performed before testing the compounds. S1P is the reference agonist and JTE-013 the reference antagonist for S1P2.
Luminescence data are integrated over the reading interval for agonist and antagonist modes. To standardize the emission of recorded light (determination of the “100% signal”) across plates and across different experiments, some of the wells contain 100 μM digitonin or a saturating concentration of ATP (20 μM). Plates also contain the reference agonist at a concentration equivalent to the EC80 obtained during the test validation and the EC100. Dose-response data from test compounds were analyzed with XLfit (IDBS) software using nonlinear regression applied to a sigmoidal dose-response model and the following equation: […]

The target in another assay is T4, S1P4 (Homo sapiens, UniProt O95977).
T4 sequence (O95977 1-384): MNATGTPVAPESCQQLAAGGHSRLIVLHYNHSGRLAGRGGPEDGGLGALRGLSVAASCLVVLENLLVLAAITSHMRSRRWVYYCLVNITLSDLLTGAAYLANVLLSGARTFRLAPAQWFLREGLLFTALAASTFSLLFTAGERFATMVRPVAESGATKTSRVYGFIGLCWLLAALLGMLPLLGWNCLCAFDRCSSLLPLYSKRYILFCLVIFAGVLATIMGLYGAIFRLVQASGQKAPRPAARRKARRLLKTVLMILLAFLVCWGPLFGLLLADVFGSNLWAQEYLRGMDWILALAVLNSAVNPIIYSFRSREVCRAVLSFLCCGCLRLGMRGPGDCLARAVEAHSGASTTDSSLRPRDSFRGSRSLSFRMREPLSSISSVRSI
The experiment in a line: Aequorin assay, agonist potency, S1P4. As to conditions: agonist mode, aequorin luminescence. The method in brief: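 Aequorin luminescence read over 90 s after adding coelenterazine h–loaded cells (5 μM, overnight, RT) to test compound in phenol red-free DMEM/F12 buffer containing 0.1% fatty acid-free BSA. Responses integrated, scaled to the 100% signal from 100 μM digitonin or 20 μM ATP, and fitted to a sigmoidal dose-response model.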

T2 sequence (P21453 whole entry): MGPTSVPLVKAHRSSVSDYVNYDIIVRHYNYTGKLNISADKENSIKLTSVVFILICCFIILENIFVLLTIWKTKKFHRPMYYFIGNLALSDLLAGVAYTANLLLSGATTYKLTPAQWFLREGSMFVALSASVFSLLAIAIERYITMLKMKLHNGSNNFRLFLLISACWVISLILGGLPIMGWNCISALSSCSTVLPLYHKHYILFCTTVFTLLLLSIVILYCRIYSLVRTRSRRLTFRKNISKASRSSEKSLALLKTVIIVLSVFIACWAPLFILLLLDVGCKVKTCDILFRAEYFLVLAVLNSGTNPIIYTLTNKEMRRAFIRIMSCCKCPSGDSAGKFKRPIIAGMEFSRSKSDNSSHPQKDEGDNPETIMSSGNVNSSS
T1 sequence (Q9H228 whole entry): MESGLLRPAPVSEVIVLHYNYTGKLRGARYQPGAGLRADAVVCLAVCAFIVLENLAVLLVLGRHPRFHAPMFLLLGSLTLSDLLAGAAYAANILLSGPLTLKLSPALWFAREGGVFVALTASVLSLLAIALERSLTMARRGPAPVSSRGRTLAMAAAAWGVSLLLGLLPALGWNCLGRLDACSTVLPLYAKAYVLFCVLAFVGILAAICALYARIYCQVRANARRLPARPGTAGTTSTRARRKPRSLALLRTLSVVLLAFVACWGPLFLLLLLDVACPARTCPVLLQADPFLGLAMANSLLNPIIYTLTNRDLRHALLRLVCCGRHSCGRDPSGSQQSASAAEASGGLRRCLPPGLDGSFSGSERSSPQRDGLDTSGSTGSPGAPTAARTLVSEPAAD
T3 sequence (Q99500 whole entry): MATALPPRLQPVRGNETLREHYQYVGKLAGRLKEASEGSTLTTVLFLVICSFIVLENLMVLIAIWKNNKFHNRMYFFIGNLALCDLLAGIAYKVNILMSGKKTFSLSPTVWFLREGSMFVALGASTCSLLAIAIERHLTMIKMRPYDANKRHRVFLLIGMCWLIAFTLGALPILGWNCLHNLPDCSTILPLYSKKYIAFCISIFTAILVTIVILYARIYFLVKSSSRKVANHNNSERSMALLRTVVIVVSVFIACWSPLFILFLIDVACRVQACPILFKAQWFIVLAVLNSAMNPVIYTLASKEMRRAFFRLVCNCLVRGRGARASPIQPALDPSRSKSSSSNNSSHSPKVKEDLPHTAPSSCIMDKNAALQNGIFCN

For the molecule `O=C(O)C1(CN2CC3(Cc4ccc(OCc5c(Cl)cccc5Cl)cc4C3)C2)CC1` [Example 46, 1-((5′-((2,6-dichlorobenzyl)oxy)-1′,3′-dihydrospiro[azetidine-3,2′-inden]-1-yl)methyl)cyclopropanecarboxylic acid], the EC50 is no more than 0.01 µM in assay [1], greater than 1 µM in assay [2], greater than 1 µM in assay [3] and less than 1 µM on S1P4.
For `O=C(O)CN1CC2(Cc3ccc(OCc4cc(F)cc(F)c4)cc3C2)C1` [Example 14, 2-(5′-((3,5-difluorobenzyl)oxy)-1′,3′-dihydrospiro[azetidine-3,2′-inden]-1-yl)acetic acid], the EC50 was 0.01 to 0.1 µM in assay [1], greater than 1 µM in assay [2], greater than 1 µM in assay [3] and less than 1 µM at S1P4.
Take `O=C(O)C1(CN2CC3(Cc4ccc(OCc5cccc(Cl)c5)cc4C3)C2)CC1` [Example 45, 1-((5′-((3-chlorobenzyl)oxy)-1′,3′-dihydrospiro[azetidine-3,2′-inden]-1-yl)methyl)cyclopropanecarboxylic acid]: the EC50 in assay [1] is 0.01 to 0.1 µM; in assay [2], greater than 1 µM; in assay [3], greater than 1 µM; at S1P4, less than 1 µM.
In the case of `O=C(O)CN1CC2(Cc3ccc(OCc4c(Cl)cccc4C4CC4)cc3C2)C1` [Example 15, 2-(5′-((2-chloro-6-cyclopropylbenzyl)oxy)-1′,3′-dihydrospiro[azetidine-3,2′-inden]-1-yl)acetic acid], the EC50 in assay [1] is no more than 0.01 µM; in assay [2], greater than 1 µM; in assay [3] it was greater than 1 µM; at S1P4 it was less than 1 µM.
Regarding `O=C(O)CN1CC2(Cc3ccc(OCCc4c(Cl)cccc4Cl)cc3C2)C1` [Example 63, 2-(5′-(2,6-dichlorophenethoxy)-1′,3′-dihydrospiro[azetidine-3,2′-inden]-1-yl)acetic acid], the EC50 is no more than 0.01 µM in assay [1], greater than 1 µM in assay [2], greater than 1 µM in assay [3] and less than 1 µM at S1P4.
